Assay results published in patent US5760065A, “Anti-HIV agent” (priority 1994, dated 1998).

How the values were obtained:
[1] = literature, qualitative; cited from earlier work
[2] = literature, qualitative; cited from earlier work; remark: listed apart in the source
[3] = literature, qualitative; cited from earlier work; remark: listed apart in the source
HIV (type IIIB) = experiment: HIV proliferation inhibitory activity: HIV budding from infected U937 cells, evaluated by reverse transcriptase activity; type: cell-based; settings: 15 min with compound, then 6 h culture
Experimental: (§1) U937 cells (derived from human lymphocytes) infected with HIV (type IIIB) were cultured in RPMI-1640 medium (Biocell Laboratories) containing Test Compound (I) and 10% fetal bovine serum (FBS) at 37° C. for 15 minutes in a CO2 -incubator. The cultured U937 cells were washed with RPMI-1640 medium and then cultured in RPMI-1640 medium containing 10% FBS at 37° C. for 6 hours in the CO2 -incubator. The degree of inhibition of HIV budding by the test compound was evaluated by the reverse transcriptase activity in a unit culture. Cytotoxicity test was carried out by the MTT method [J. Immunol. Method., 65, 55 (1983)].

in vitro = type: cell-based; settings: human, u937 cells, MTT method
Experimental: as §1

actin = settings: 67th Annual Meeting of the Japanese Pharmacological Society (1994); cited from earlier work
platelet = settings: 67th Annual Meeting of the Japanese Pharmacological Society (1994); cited from earlier work
smooth muscle = settings: 113th Meeting of the Japanese Society of Veterinary Science (1992); cited from earlier work

Compound | cytotoxicity [2] | antifungal activity [3] | other results
COCC(OC)C(=O)OC(CCC(C)C(CC1OC(=O)CC(O)CCCC(=O)CC(C)c2coc(n2)-c2coc(n2)-c2coc(n2)/C=C/CC(OC)C1C)OC)C(C)C(OC(C)=O)C(C)/C=C/N(C)C=O (centres unmarked) [Ulpualide B] | have cytotoxicity | – | antibacterial activity [1]: antibacterial activity
COC(CC1OC(=O)CC(O)CC=CC(=O)C(C)C(OC)c2coc(n2)-c2coc(n2)-c2coc(n2)/C=C/CCC1C)C(C)CCC(=O)C(C)C(CCC(=O)O)OC (centres unmarked) [Isohalichondramide (carboxylic acid form)] | have cytotoxicity | antifungal activity | –
COC(=O)/C=C/CCC(C)C(CC(OC)C(C)CCC(=O)C(C)C(C/C=C/N(C)C=O)OC)OC(=O)CC(O)CC=CC(=O)C(C)C(OC)c1coc(-c2coc(C(N)=O)n2)n1 (centres unmarked) [Isohalichondramide (ester form)] | have cytotoxicity | antifungal activity | –
COC(CC1OC(=O)CC(O)CC=CC(=O)C(C)C(OC)c2coc(n2)-c2coc(n2)C(=O)NC(=O)/C=C/CCC1C)C(C)CCC(=O)C(C)C(C/C=C/N(C)C=O)OC (centres unmarked) [Isohalichondramide (imide form)] | have cytotoxicity | antifungal activity | –
COC(CC1OC(=O)CC(O)CCCC(O)C(C)C(OC)c2coc(n2)-c2coc(n2)-c2coc(n2)/C=C/CC(OC)C1C)C(C)CCC(=O)C(C)C(OC)C(C)/C=C/N(C)C=O (centres unmarked) [Kabiramide D] | have cytotoxicity | – | –
COC(CC1OC(=O)CC(OC(N)=O)CCCC(O)C(CO)C(OC)c2coc(n2)-c2coc(n2)-c2coc(n2)/C=C/CC(OC)C1C)C(C)CCC(=O)C(C)C(OC)C(C)/C=C/N(C)C=O (centres unmarked) [Kabiramide A] | have cytotoxicity | – | –
COC(CC1OC(=O)CC(O)CCCC(O)C(C)C(OC)c2coc(n2)-c2coc(n2)-c2coc(n2)/C=C/CCC1C)C(C)CCC(=O)C(C)C(OC)C(C)/C=C/N(C)C=O (centres unmarked) [Tetrahydrohalichondramide] | has cytotoxicity | antifungal activity | –
COC(CC1OC(=O)CC(O)C/C=C/C(=O)C(C)C(OC)c2coc(n2)-c2coc(n2)-c2coc(n2)/C=C/CC(OC)C1C)C(C)CCC(=O)C(C)C(OC(C)=O)C(C)/C=C/N(C)C=O (centres unmarked) [Mycalolide A] | have cytotoxicity | antifungal activity | –
COC(CC1OC(=O)CC(OC(N)=O)CCCC(O)C(C)C(OC)c2coc(n2)-c2coc(n2)-c2coc(n2)/C=C/CC(OC)C1C)C(C)CCC(=O)C(C)C(OC)C(C)/C=C/N(C)C=O (centres unmarked) [Kabiramide C] | – | has antifungal activity | –
COC(CC1OC(=O)CC(O)C/C=C/C(=O)C(C)C(OC)c2coc(n2)-c2coc(n2)-c2coc(n2)/C=C/CC(O)C1C)C(C)CCC(=O)C(C)C(C/C=C/N(C)C=O)OC (centres unmarked) [Jaspisamide B] | have cytotoxicity | – | –
COC(CC1OC(=O)CC(O)C/C=C/C(=O)C(C)C(OC)c2coc(n2)-c2coc(n2)-c2coc(n2)/C=C/CCC1C)C(C)CCC(=O)C(C)C(OC)C(C)/C=C/N(C)C=O (centres unmarked) [Jaspisamide C] | have cytotoxicity | – | –
COC(CC1OC(=O)CC(O)CCCC(=O)C(C)C(OC)c2coc(n2)-c2coc(n2)-c2coc(n2)/C=C/CCC1C)C(C)CCC(=O)C(C)C(OC)C(C)/C=C/N(C)C=O (centres unmarked) [33-Methyldihydrohalichondramide] | have cytotoxicity | – | –
COC(CC1OC(=O)CC(O)CC(O)CC(=O)C(C)C(OC)c2coc(n2)-c2coc(n2)-c2coc(n2)/C=C/CCC1C)C(C)CCC(=O)C(C)C(C/C=C/N(C)C=O)OC (centres unmarked) [Jaspisamide A] | have cytotoxicity | – | –
COC(CC1OC(=O)CC(O)C/C=C/C(=O)C(C)C(OC)c2coc(n2)-c2coc(n2)-c2coc(n2)/C=C/CCC1C)C(C)CCC(=O)C(C)C(C/C=C/N(C)C=O)OC (centres unmarked) [Halichondramide] | have cytotoxicity | antifungal activity | –
COC(CC1OC(=O)CC(OC(N)=O)CCCC(O)C(C)C(OC)c2coc(n2)-c2coc(n2)-c2coc(n2)/C=C/CC(O)C1C)C(C)CCC(=O)C(C)C(OC)C(C)/C=C/N(C)C=O (centres unmarked) [Kabiramide B] | have cytotoxicity | – | –
COC(CC1OC(=O)CC(OC(C)=O)CCCC(O)C(C)C(OC)c2coc(n2)-c2coc(n2)-c2coc(n2)/C=C/CC(OC)C1C)C(C)CCC(=O)C(C)C(OC)C(C)/C=C/N(C)C=O (centres unmarked) [Kabiramide E] | have cytotoxicity | – | –
COC(CC1OC(=O)CC(O)CCCC(=O)CC(C)c2coc(n2)-c2coc(n2)-c2coc(n2)/C=C/CC(OC)C1C)C(C)CCC(=O)C(C)C(OC(C)=O)C(C)/C=C/N(C)C=O (centres unmarked) [Ulpualide A] | have cytotoxicity | – | antibacterial activity [1]: antibacterial activity
COC(C)C(=O)OC(CCC(C)C(CC1OC(=O)CC(O)C/C=C/C(=O)C(C)C(OC)c2coc(n2)-c2coc(n2)-c2coc(n2)/C=C/CC(OC)C1C)OC)C(C)C(OC(C)=O)C(C)/C=C/N(C)C=O (centres unmarked) [Mycalolide C] | have cytotoxicity | antifungal activity | –
COC(CC1OC(=O)CC(O)CC=CC(=O)C(C)C(OC)c2coc(n2)-c2coc(n2)-c2coc(n2)/C=C/CCC1C)C(C)CCC(=O)C(C)C(C/C=C/N(C)C=O)OC (centres unmarked) [Isohalichondramide] | have cytotoxicity | antifungal activity | –
COC(CC1OC(=O)CC(O)CCCC(=O)C(C)C(OC)c2coc(n2)-c2coc(n2)-c2coc(n2)/C=C/CCC1C)C(C)CCC(=O)C(C)C(C/C=C/N(C)C=O)OC (centres unmarked) [Dihydrohalichondramide] | have cytotoxicity | antifungal activity | –
COCC(OC)C(=O)OC(CCC(C)C(CC1OC(=O)CC(O)C/C=C/C(=O)C(C)C(OC)c2coc(n2)-c2coc(n2)-c2coc(n2)/C=C/CC(OC)C1C)OC)C(C)C(OC(C)=O)C(C)/C=C/N(C)C=O (centres unmarked) [Mycalolide B] | have cytotoxicity | antifungal activity | inhibition at 0.1 µM (HIV (type IIIB); Human immunodeficiency virus 1, U-937, 10^-7 M): 71.4%; inhibition at 0.01 µM (HIV (type IIIB); Human immunodeficiency virus 1, U-937, 10^-8 M): 57.1%; inhibition at 0.001 µM (HIV (type IIIB); Human immunodeficiency virus 1, U-937, 10^-9 M): 28.6%; inhibition at 0.0001 µM (HIV (type IIIB); Human immunodeficiency virus 1, U-937, 10^-10 M): 14.3%; cytotoxicity at 0.1 µM (in vitro; 10^-7 M): 4.3%; cytotoxicity at 0.01 µM (in vitro; 10^-8 M): 2.2%; cytotoxicity at 0.001 µM (in vitro; 10^-9 M): 1.5%; cytotoxicity at 0.0001 µM (in vitro; 10^-10 M): 0.7%; actin polymerization inhibitory activity (actin): actin polymerization inhibitory activity; anti-platelet activity (platelet): anti-platelet activity; inhibitory activity against contraction of smooth muscle (smooth muscle): inhibitory activity against contraction of smooth muscle
